Source: US12331324B2, “Versatile peroxidases and uses thereof” (Yeda Research and Development Co. Ltd., priority 2021, dated 2025)
Where two headings read alike, the source gives them in different places.

What was measured:
[1] = target: Pleurotus eryngii versatile peroxidase VPL, variant R4 (VPL-R4, previously evolved for expression; wild type SEQ ID NO: 8) (Pleurotus eryngii, UniProt O94753); format: biochemical; conditions: 25° C.
Procedure: (§1) VPs production and purification. A colony from S. cerevisiae clone containing the VP gene (5H, 8H, 11H, VPL_R4, VPL_2-1B) was picked from an SC drop-out plate, inoculated in 25 mL minimal medium in a 250 flask, and incubated for 48 hours at 30° C. and 225 rpm. An aliquot of cells was removed and used to inoculate 100 mL of minimal medium in a 1 L flask to an OD600 nm of 0.25-0.30, under the same conditions. The cells completed two growth phases (8-10 hours, reaching OD600 nm˜1-1.5), then the expression medium (450 mL) was inoculated with 50 mL of the pre-culture in a 2 L flask (OD600 nm˜0.1). Cells were incubated for a further ˜60 hours at 30° C. and 225 rpm. Thereafter, cells were centrifuged at 6000 g for 15 min at 4° C., and the supernatant was collected and filtered with a 0.2 μm filter bottle.
(§2) Filtrates were subjected to fractional precipitation with ammonium sulfate in two steps: first cut of 50%, followed by centrifugation and elimination of the precipitates, and the second cut of 70%. Buffer A was used to dissolve the pellet, and the dissolved protein solution was shaken overnight at 4° C. for maximal recovery. The dissolved fraction was then centrifuged, filtrated, concentrated, and subjected to overnight dialysis against buffer A. Filtered fractions of the VP proteins after dialysis were uploaded into a HiTrap™ Q HP Column (GE Healthcare Bio-Sciences AB, Uppsala, Sweden) pre-equilibrated with buffer A, through ÄKTA pure protein purification system (GE Healthcare Bio-Sciences AB). Proteins were eluted in a two-step linear gradient from 0 to 1 M NaCl, at a flow rate of 1 ml/min: the first phase of 0-25% over 15 column volumes (75 min) and second phase of 25-100% over 2 column volumes (10 min). The fractions of the peak with the highest VP activity (and absorption at 407 nm) were pooled, concentrated, and dialyzed against 20 mM piperazine buffer pH=5.5 and 150 mM NaCl (buffer B). Protein fractions were then uploaded onto a Superdex 75 Increase 10/300 GL (GE Healthcare Bio-Sciences AB) through the ÄKTA pure system pre-equilibrated with buffer B. The fractions of the peak with the highest VP activity (and absorption at 407 nm) were pooled and dialyzed against buffer A. Pure protein samples were stored at 4° C. Protein concentration was determined using the BCA assay with bovine serum albumin as a standard.
(§3) pH activity profiles. For purified 5H, 8H, 11H, and R4, 20 μL protein samples (diluted in buffer A) were transferred into activity 96 plates (in the case of VA and MnSO4, UV-Star plates; Greiner Bio-One GmbH, Kremsmünster, Austria) and then, 180 μL of the reaction mixture were added to each row in the plate, and absorption at the appropriate wavelength (substrate-dependent) was recorded immediately in a kinetic mode in a plate-reader at 25° C. The reaction mixtures contained a specific substrate in 100 mM citrate-phosphate-borate buffer (pH 2, 3, 3.5, 4, 5, 6, 7, 8) and 0.1 mM H2O2. The activities were recorded in triplicate. The following substrate concentrations and absorption wavelengths were used: ABTS: 2 mM, 418 nm; DMP: 5 mM, 469 nm; RB5: 0.05 mM, 598 nm; VA: 30 mM, 310 nm. For manganese, the reaction mixtures contained 60 mM MnSO4 in 100 mM sodium tartrate buffer (pH 3, 3.5, 4, 4.5, 5) and 0.1 mM H2O2, and the Mn^3+-tartrate complex absorption was read at 238 nm. For each protein and substrate, the activities were normalized to the activity at optimal pH for residual activity calculations. Each activity assay was conducted in triplicate.
(§4) Kinetic parameters. Steady-state kinetics were determined for 5H, 8H, 11H and R4, by measuring the activity (initial rates) in increasing concentrations of the substrate, and the KM and Kcat values were calculated by fitting the results to the Michaelis-Menten model (V0=KcatES/(KM+S)).

[2] = tested on: Ganoderma sp. 10597_SS1 versatile peroxidase VP8, designed variant 8H, SEQ ID NO: 2 (wild type SEQ ID NO: 5; mutations R4P, M5S, E34T, G59A, T65W, A67Q, V85I …); format: biochemical; conditions: for Kcat / Kcat/KM / Km: 25° C.
Procedure: as §1, §2, §3, §4

[3] = tested on: Pleurotus eryngii versatile peroxidase VPL, variant R4 (VPL-R4, previously evolved for expression; wild type SEQ ID NO: 8); format: biochemical
Procedure: as §1, §2, §3, §4

[4] = tested on: Pleurotus ostreatus versatile peroxidase VP5, designed variant 5H, SEQ ID NO: 1 (wild type SEQ ID NO: 4; mutations A11S, V15T, A17S, A19E, P26D, D38G, A40Q …)
Procedure: as §1
Filtrates were subjected to fractional precipitation with ammonium sulfate in two steps: first cut of 50%, followed by centrifugation and elimination of the precipitates, and the second cut of 70%. […] Protein concentration was determined using the BCA assay with bovine serum albumin as a standard.
pH activity profiles. […] The activities were recorded in triplicate. […] For manganese, the reaction mixtures contained 60 mM MnSO4 in 100 mM sodium tartrate buffer (pH 3, 3.5, 4, 4.5, 5) and 0.1 mM H2O2, and the Mn^3+-tartrate complex absorption was read at 238 nm. […]

[5] = high efficiency site, optimum pH, 1 mM H2O2
[6] = low efficiency site, optimum pH, 1 mM H2O2
[7] = high efficiency site, optimum pH, 0.2 mM H2O2
[8] = low efficiency site, optimum pH, 0.2 mM H2O2
[9] = H2O2 kinetics with 2 mM ABTS, optimum pH for ABTS
[10] = H2O2 kinetics with 3 mM ABTS, optimum pH for ABTS
[11] = VA, RB5, optimum pH, 0.2 mM H2O2

Chain of Pleurotus eryngii versatile peroxidase VPL, variant R4 (VPL-R4, previously evolved for expression; wild type SEQ ID NO: 8) (Pleurotus eryngii, UniProt O94753) (O94753 31-361, change not shown): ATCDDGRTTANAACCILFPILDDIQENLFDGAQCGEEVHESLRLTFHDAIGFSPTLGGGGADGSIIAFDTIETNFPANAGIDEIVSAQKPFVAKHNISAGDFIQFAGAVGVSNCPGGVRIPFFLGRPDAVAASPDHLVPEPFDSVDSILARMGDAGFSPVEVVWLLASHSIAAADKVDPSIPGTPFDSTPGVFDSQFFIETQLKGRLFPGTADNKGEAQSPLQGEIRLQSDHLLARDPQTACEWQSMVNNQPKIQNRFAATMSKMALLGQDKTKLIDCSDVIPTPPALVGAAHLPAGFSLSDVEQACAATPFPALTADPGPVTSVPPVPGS

Compound	Kcat [1, 5] [s⁻¹]	Kcat/KM [1, 5]	Km [1, 5] [µM]	Kcat [1, 6] [s⁻¹]	Kcat/KM [1, 6] [s⁻¹ mM⁻¹]	Km [1, 6] [µM]	Kcat [2, 7] [s⁻¹]	Kcat/KM [2, 7] [M⁻¹ s⁻¹]	Km [2, 7] [µM]	Kcat [2, 8] [s⁻¹]	Kcat/KM [2, 8] [M⁻¹ s⁻¹]	Km [2, 8] [µM]	Kcat ([1]; VA, RB5, optimum pH, 1 mM H2O2) [s⁻¹]	Kcat/KM ([1]; VA, RB5, optimum pH, 1 mM H2O2) [s⁻¹ mM⁻¹]	Km ([1]; VA, RB5, optimum pH, 1 mM H2O2) [µM]	Kcat [2, 11] [s⁻¹]	Kcat/KM [2, 11] [M⁻¹ s⁻¹]	Km [2, 11] [µM]	further results
CCn1c(=NN=c2sc3cc(S(=O)(=O)O)ccc3n2CC)sc2cc(S(=O)(=O)O)ccc21 [ABTS, 2,2′-azino-bis (3-ethylbenzothiazoline-6-sulfonic acid)]	1.3 ± 0.1	3,300 ± 700 sec^−1 mM^−1	0.39 ± 0.08	400 ± 21	405 ± 49	987 ± 107	7.8 ± 0.3	1.55e+06 ± 260000	5 ± 0.8	28.2 ± 0.9	35400 ± 4400	795 ± 96	–	–	–	–	–	–	–
COc1cccc(OC)c1O [DMP, 2,6-dimethoxyphenol]	0.74 ± 0.05	542 ± 113 s⁻¹ mM⁻¹	1.4 ± 0.3	132 ± 7	8.2 ± 1.0	16100	2.2 ± 0.1	94600 ± 8200	22.9 ± 1.8	3.6 ± 0.1	22100 ± 1600	164 ± 12	–	–	–	–	–	–	heme-dependent affinity for DMP, fold higher relative to the other VPs ([2]; 8H relative to the other VPs (5H, 11H, R4)): at least 70 fold
OO [H2O2, Hydrogen peroxide]	–	–	–	–	–	–	–	–	–	–	–	–	–	–	–	–	–	–	H2O2 affinity, fold lower than seen in 11H [3]: 12 fold; Kcat [1, 9]: 230 ± 9 s⁻¹; Kcat/KM [1, 9]: 503 ± 61 s⁻¹ mM⁻¹; Km [1, 9]: 457 ± 53 µM; H2O2 affinity, fold lower than seen in 11H ([2]; 8H relative to 11H): 2 fold; Kcat [2, 10]: 12.1 ± 0.6 s⁻¹; Kcat/KM [2, 10]: 135000 ± 21000 M⁻¹ s⁻¹; Km [2, 10]: 89.7 ± 12.9 µM; H2O2 affinity, fold lower than seen in 11H ([4]; 5H relative to 11H): 5 fold
Nc1c(N=Nc2ccc(S(=O)(=O)CCOS(=O)(=O)O)cc2)c(S(=O)(=O)O)cc2cc(S(=O)(=O)O)c(N=Nc3ccc(S(=O)(=O)CCOS(=O)(=O)O)cc3)c(O)c12 [RB5, reactive black 5]	–	–	–	–	–	–	–	–	–	–	–	–	0.63 ± 0.02	487 ± 51	1.3 ± 0.1	1.1 ± 0.1	65000 ± 7200	17.3 ± 1.7	–
COc1ccc(CO)cc1OC [VA, veratryl alcohol]	–	–	–	–	–	–	–	–	–	–	–	–	5.4 ± 0.4	0.7 ± 0.1	7400	5.5 ± 0.1	550 ± 20	10100	affinity for VA relative to the next best enzyme ([4]; 5H relative to the next best enzyme): more than an order of magnitude higher affinity
